Patent US5650441A, “Method of assaying CD4 glycoproteins by using certain azo dyes” (The United States of America, as represented by the …, priority 1994, dated 1997)
One block for each compound: values may come before it.

How the values were obtained:
[1] = test system: HIV isolate LAV-1BR in PHA stimulated human PBL; assay: microbe, parasite or virus in culture; format: cell-based; settings: for CPM RT: [3H]-TTP incorporated by reverse transcriptase, DMSO control 6338
Procedure: (§1) The effect of various drugs on growth of HIV isolate LAV-1BR in PHA stimulated human PBL was measured using two assays. Reverse transcriptase activity was measured in disrupted virions from the cell free supernatant as previously described (Anand et al, "Interaction between rifabutin and human immunodeficiency virus type-1: inhibition of replication, cytopathic effect and reverse transcriptase in vitro," Antimicrob. Agents Chemother. 32 684-688 (1988)).

[2] = Binding to serum proteins; format: in vitro ADME; settings: not shown
[3] = test system: HIV isolate LAV-1BR in PHA stimulated human PBL; assay: Production of intracellular HIV p24 measured by ELISA; format: cell-based; settings: for pg/ml HIV p24: intracellular p24, ELISA, DMSO control 1222
Procedure: as §1

[4] = Viability of PBL after 72 hr culture (propidium iodide exclusion); format: cell-based, human; settings: human, PBL, 72 hr culture, untreated 90, read-out: % Viable Cells
Procedure: (§2) The effect of compounds on the viability of PBL was determined after culturing PBL for 72 hr at 37° C. Some cells were stimulated with 1 μl/ml of anti-T-cell receptor antibody for this time period. Cells were then washed 1× in PBS and resuspended in PBS with 3 μg/ml propidium iodide. After 10 min incubation cells were analyzed by flow cytometry. Live cells were defined as those excluding propidium iodide.

[5] = Solubility in aqueous solutions; format: physicochemical; settings: concentrations needed for efficacy in the presence of serum
[6] = target: T1, binding of HIV rgp120 to CD4 on peripheral blood lymphocytes (Homo sapiens, UniProt P01730); assay: Inhibition of HIV rgp120 binding to PBL, detected with anti-rgp120-FITC, flow cytometry; settings: 10 min, rgp120 binding detected by αrgp120-FITC in PBS, % logarithmic mean channel number
T1 construct: Human peripheral blood lymphocytes (PBL) were prepared by density gradient centrifugation; endogenous in cells; host or cells: human peripheral blood lymphocytes (PBL)
Procedure: (§3) Human peripheral blood lymphocytes (PBL) were prepared by density gradient centrifugation as previously described (Weaver et al., 1990). The effect of drugs on the binding of anti-CD4-FITC (αCD4), anti-CD3-FITC (αCD3), anti-CD8-FITC (αCDS), or HIV coat protein rgp120 was measured as previously described (Weaver et al., 1990). Briefly, cells were treated with a drug (10' RT) and then FITC labeled antibody or rgp120 followed by anti-rgp120-FITC. Binding was measured by quantitating cell bound fluorescence using flow cytometry. Some binding assays were run in phenol red free RPMI 1640/5% serum instead of the usual PBS to determine effectiveness under cell culture conditions.
The results shown in Table 2 confirm that the three dyes selected on the basis of their interference with αCD4 binding can also block binding of rgp120. Their relative efficacy appears to be similar in both assays.

[7] = target: T2, CD4 on PBL (Homo sapiens, UniProt P01730); assay: Inhibition of binding of αCD4-FITC (anti-Leu3a) to PBL, flow cytometry; settings: for remaining activity at 7 µM: compound 7 μM
T2 construct: Human peripheral blood lymphocytes (PBL) were prepared by density gradient centrifugation; endogenous in cells; host or cells: human peripheral blood lymphocytes (PBL)
Procedure: as §3
Since anti-Leu3a (αCD4) and rgp120 bind to the same site on the CD4 molecule, interference in binding of αCD4 can be used to screen compounds for possible anti-HIV activity. EB or ATA are used as positive controls since they have been shown previously to block eCD4 and rpg120 binding (Weaver et al, "Polyionic compounds selectively alter availability of CD4 receptors for HIV coat protein rgp120," AIDS Res. Human Retrovir. 6 1125-1130 (1990)). […] Six of the dyes tested show significant ability to block αCD4 binding. Three compounds, Acid Blue 116, Acid Red 115, and Direct Red 79 were selected for more complete analysis.

[8] = test system: αCD8 binding to PBL; assay: Specificity: binding of αCD8-FITC to PBL; parameters: species or system human; settings: for % Control Binding αCD8: αCD8-FITC binding in PBS, 10 min
Procedure: as §3
(§4) We have analyzed the specificity of these compounds by testing their ability to interfere with the binding of two other monoclonal antibodies, αCD3 and αCD8. […] The increase in binding of αCD3 on Direct Red 79 treated cells may reflect nonspecific binding.

[9] = target: T3, αCD3 binding to PBL (Homo sapiens, UniProt P07766); assay: Specificity: binding of αCD3-FITC to PBL
T3 construct: Human peripheral blood lymphocytes (PBL) were prepared by density gradient centrifugation; endogenous in cells; host or cells: human peripheral blood lymphocytes (PBL)
Procedure: as §3, §4

[10] = test system: PBL; assay: Viability of PBL after 72 hr culture (propidium iodide exclusion); format: cell-based, human; settings: 72 hr of continuous culture
Procedure: as §2

[11] = Viability of PBL after 72 hr culture with anti-TCR stimulation (propidium iodide exclusion); format: cell-based, human; settings: human, anti-tcr stimulated pbl; PBL, 72 hr culture with anti-TCR stimulation, 100 μM; untreated 78; read-out: % Viable Cells
Procedure: as §2

[12] = test system: anti-TCR stimulated PBL; assay: as above; format: cell-based, human; settings: Table 5
Procedure: as §2

[13] = 10 min, αCD4-FITC binding to PBL in PBS, % logarithmic mean channel number, read-out: % Control Binding
[14] = 10 min, αCD4-FITC binding to PBL in PBS, % logarithmic mean channel number, compound 10 μM, read-out: % Control Binding

T3 sequence (P07766 23-207): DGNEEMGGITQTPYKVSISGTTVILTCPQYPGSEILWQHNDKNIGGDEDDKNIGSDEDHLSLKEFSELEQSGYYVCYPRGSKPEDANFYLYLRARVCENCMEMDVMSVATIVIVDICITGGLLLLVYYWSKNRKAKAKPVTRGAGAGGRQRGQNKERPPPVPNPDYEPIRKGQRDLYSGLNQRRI
T3 sequence (P04234 22-171 partner): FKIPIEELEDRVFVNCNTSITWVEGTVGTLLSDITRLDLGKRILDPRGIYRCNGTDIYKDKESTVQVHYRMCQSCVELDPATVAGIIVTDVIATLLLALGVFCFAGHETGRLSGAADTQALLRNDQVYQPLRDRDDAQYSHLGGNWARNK
T3 sequence (P09693 23-182 partner): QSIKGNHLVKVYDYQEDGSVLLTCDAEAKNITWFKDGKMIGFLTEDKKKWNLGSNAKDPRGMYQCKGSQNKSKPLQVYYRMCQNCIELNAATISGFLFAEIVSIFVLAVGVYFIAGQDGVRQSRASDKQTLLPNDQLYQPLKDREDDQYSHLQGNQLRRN
T3 sequence (P20963 22-164 partner): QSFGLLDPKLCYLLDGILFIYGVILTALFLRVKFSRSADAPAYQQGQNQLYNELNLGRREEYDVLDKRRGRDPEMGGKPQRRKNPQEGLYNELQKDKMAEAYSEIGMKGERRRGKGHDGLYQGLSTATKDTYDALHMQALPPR

Compound: O=C(O)C1=CC(=C(c2ccc(O)c(C(=O)O)c2)c2ccc(O)c(C(=O)O)c2)C=CC1=O [ATA, aurin tricarboxlyic acid, reference compound]
inhibition at 1 µM ([1]; Human immunodeficiency virus 1, 144 h, HIV reverse transcriptase activity, six day culture, 1 μM): 97%
CPM RT ([1]; six day culture, 1 μM): 109 CPM
binding to serum proteins (in words) [2]: does not bind to serum proteins
pg/ml HIV p24 ([3]; 0.25 μg/ml): 111 pg/mL
pg/ml HIV p24 ([3]; 2.5 μg/ml): 0 pg/mL
viability at 72 h, 10 µM ([4]; 10 μM): 86%

Compound: O=S(=O)(O)c1ccc2c(N=Nc3ccccc3)ccc(N=Nc3ccc(Nc4ccccc4)c4c(S(=O)(=O)O)cccc34)c2c1 [Acid Blue 116, C.I. Acid Blue 116]
solubility in aqueous solutions (in words) [5]: near their limits of solubility
remaining rgp120 binding (% of control) at 7 µM ([6]; compound 7 μM): 9%
remaining activity at 4 µM ([7]; 10 min, Table 3, αCD4-FITC binding in PBS, compound 4 μM, read-out: % Control Binding αCD4): 1%
remaining activity at 7 µM [7, 13]: 0%
reduction of binding of αCD8 (fraction) ([8]; Table 3): about 1/2
% Control Binding αCD8 ([8]; compound 4 μM): 54%
αCD3 binding, % of control at 4 µM ([9]; 10 min, αCD3-FITC binding in PBS, compound 4 μM): 44%
reduction of binding of αCD3 (fraction) ([9]; Table 3): about 1/2

Compound: Cc1ccccc1N=Nc1ccc(N=Nc2c(O)c(S(=O)(=O)[O-])cc3cc(S(=O)(=O)[O-])ccc23)c(C)c1.[Na+].[Na+] [Acid Red 115, C.I. Acid Red 115]
solubility in aqueous solutions (in words) [5]: near their limits of solubility
% Control Binding ([6]; compound 6 μM): 10%
% Control Binding αCD4 ([7]; Table 3, αCD4-FITC binding in PBS, compound 6 μM, 10 min): 2%
% Control Binding ([7]; αCD4-FITC binding to PBL in PBS, % logarithmic mean channel number, compound 6 μM, 10 min): 2%
% Control Binding αCD8 ([8]; compound 6 μM): 90%
effect on binding of αCD3 (in words) ([9]; Table 3): interferes with αCD3
% Control Binding αCD3 ([9]; αCD3-FITC binding in PBS, compound 6 μM, 10 min): 41%

Compound: COc1cc(N=Nc2cc(S(=O)(=O)O)cc3cc(S(=O)(=O)O)cc(O)c23)c(C)cc1NC(=O)Nc1cc(C)c(N=Nc2cc(S(=O)(=O)O)cc3cc(S(=O)(=O)O)cc(O)c23)cc1OC [Direct Red 79, C.I. Direct Red 79]
inhibition at 100 µM ([1]; Human immunodeficiency virus 1, 144 h, HIV reverse transcriptase activity, six day culture, 100 μM): 97%
CPM RT ([1]; six day culture, 100 μM): 145 CPM
production of reverse transcriptase activity (in words) ([1]; after six days of culture): strongly inhibit
remaining rgp120 binding (% of control) at 10 µM ([6]; compound 10 μM): 30%
remaining activity at 20 µM ([7]; 10 min, Table 3, αCD4-FITC binding in PBS, compound 20 μM, read-out: % Control Binding αCD4): 22%
remaining activity at 10 µM [7, 14]: 13%
p24 production (in words) ([3]; intracellular HIV p24 protein): strongly decrease
pg/ml HIV p24 ([3]; 5 μg/ml): 333 pg/mL
viability at 72 h, 400 µM ([4]; 400 μM): 89%
effect on the viability of PBL (in words) [10]: no effect
effect on binding of αCD8 (in words) ([8]; Table 3): does not affect binding
% Control Binding αCD8 ([8]; compound 20 μM): 106%
viability at 72 h, 100 µM [11]: 54%
effect on the proliferation of αTCR stimulated PBL (in words) [12]: limited effect
αCD3 binding, % of control at 20 µM ([9]; 10 min, αCD3-FITC binding in PBS, compound 20 μM): 124%
effect on binding of αCD3 (in words) ([9]; Table 3): does not affect binding

Now from value to compound:

remaining activity at 7 µM [7, 13]: 6%
Compound: Cc1cc(-c2cc(C)c(N=Nc3c(O)ccc4ccccc34)cc2S(=O)(=O)O)c(S(=O)(=O)O)cc1N=Nc1c(O)ccc2ccccc12 [Acid Red 89, C.I. Acid Red 89]

% Control Binding ([7]; αCD4-FITC binding to PBL in PBS, % logarithmic mean channel number, compound 10 μM): 1%
Compound: COc1cc(-c2ccc(N=Nc3ccc4c(S(=O)(=O)[O-])cc(S(=O)(=O)[O-])c(N)c4c3O)c(OC)c2)ccc1N=Nc1ccc2c(S(=O)(=O)[O-])cc(S(=O)(=O)[O-])c(N)c2c1O.[Na+].[Na+].[Na+].[Na+] [Direct Blue 1, C.I. Direct Blue 1]

remaining activity at 10 µM [7, 14]: 70%
Compound: Nc1ccc2cc(S(=O)(=O)O)cc(O)c2c1N=Nc1ccc(NC(=O)Nc2ccc(N=Nc3c(N)ccc4cc(S(=O)(=O)O)cc(O)c34)c(S(=O)(=O)O)c2)cc1S(=O)(=O)O [Direct Red 75, C.I. Direct Red 75]

remaining activity at 12 µM ([7]; 10 min, αCD4-FITC binding to PBL in PBS, % logarithmic mean channel number, compound 12 μM, read-out: % Control Binding): 84%
Compound: O=C(Nc1ccc(N=Nc2ccc(O)c(C(=O)O)c2)cc1)Nc1ccc(N=Nc2ccc(O)c(C(=O)O)c2)cc1 [Direct Yellow 26, C.I. Direct Yellow 26]

remaining activity at 50 µM ([7]; 10 min, αCD4-FITC binding to PBL in PBS, % logarithmic mean channel number, compound 50 μM, read-out: % Control Binding): 42%
Compound: Cc1cc(NC(=O)Nc2ccc(N=Nc3cc(S(=O)(=O)O)c4cccc(S(=O)(=O)O)c4c3)c(C)c2)ccc1N=Nc1cc(S(=O)(=O)O)c2cccc(S(=O)(=O)O)c2c1 [Direct Yellow 50, reference compound]

remaining activity at 5 µM ([7]; 10 min, αCD4-FITC binding to PBL in PBS, % logarithmic mean channel number, compound 5 μM, read-out: % Control Binding): 102%
Compound: O=S(=O)(O)c1cccc(N=Nc2c(O)ccc3cc(S(=O)(=O)O)cc(S(=O)(=O)O)c23)c1 [FD1]
